Measurements reported in patent US4822790A, “1-Sulfo-2-oxoazetidine derivatives and their production” (Takeda Chemical Industries, Ltd., priority 1980, dated 1989).

Columns and labels:
Assay type in all cases: cell-based
[1] = tested on: Staphylococcus aureus FDA209P; assay: Antibacterial test (MIC), Staphylococcus aureus FDA209P
Excerpt: (§1) The following is media and compounds employed in the antibacterial test.
(§2) TSA=Trypticase soy agar [Baltimore Biologicals (U.S.A.)]
(§3) B-TSA=Blood trypticase soy agar

[2] = tested on: Staphylococcus aureus 308A-1; assay: Antibacterial test (MIC), Staphylococcus aureus 308A-1; conditions: medium TSA
Excerpt: as §1, §2, §3

[3] = tested on: Staphylococcus aureus 1840; assay: Antibacterial test (MIC), Staphylococcus aureus 1840; conditions: medium TSA
Excerpt: as §1, §2, §3

[4] = tested on: Escherichia coli NIHJ JC-2; assay: Antibacterial test (MIC), Escherichia coli NIHJ JC-2; conditions: medium TSA
Excerpt: as §1, §2, §3

[5] = tested on: Escherichia coli 0-111; assay: Antibacterial test (MIC), Escherichia coli 0-111; conditions: medium TSA
Excerpt: as §1, §2, §3

[6] = tested on: Escherichia coli T-7; assay: Antibacterial test (MIC), Escherichia coli T-7; conditions: medium TSA
Excerpt: as §1, §2, §3

[7] = tested on: Citrobacter freundii IFO 12681; assay: Antibacterial test (MIC), Citrobacter freundii IFO 12681; conditions: medium TSA
Excerpt: as §1, §2, §3

[8] = tested on: Klebsiella pneumoniae DT; assay: Antibacterial test (MIC), Klebsiella pneumoniae DT; conditions: medium TSA
Excerpt: as §1, §2, §3

[9] = tested on: Enterobacter cloacae IFO 12937; assay: Antibacterial test (MIC), Enterobacter cloacae IFO 12937; conditions: medium TSA
Excerpt: as §1, §2, §3

[10] = tested on: Serratia marcescens IFO 12648; assay: Antibacterial test (MIC), Serratia marcescens IFO 12648; conditions: medium TSA
Excerpt: as §1, §2, §3

[11] = tested on: Proteus vulgaris IFO 3988; assay: Antibacterial test (MIC), Proteus vulgaris IFO 3988; conditions: medium TSA
Excerpt: as §1, §2, §3

[12] = tested on: Proteus mirabilis IFO 3849; assay: Antibacterial test (MIC), Proteus mirabilis IFO 3849; conditions: medium TSA
Excerpt: as §1, §2, §3

[13] = tested on: Proteus morganii IFO 3168; assay: Antibacterial test (MIC), Proteus morganii IFO 3168; conditions: medium TSA
Excerpt: as §1, §2, §3

[14] = tested on: Pseudomonas aeruginosa IFO 3455; assay: Antibacterial test (MIC), Pseudomonas aeruginosa IFO 3455; conditions: medium TSA
Excerpt: as §1, §2, §3

[15] = tested on: Pseudomonas aeruginosa U 31; assay: Antibacterial test (MIC), Pseudomonas aeruginosa U 31; conditions: medium TSA
Excerpt: as §1, §2, §3

[16] = tested on: Acinetobacter calcoaceticus IFO 13006; assay: Antibacterial test (MIC), Acinetobacter calcoaceticus IFO 13006; conditions: medium TSA
Excerpt: as §1, §2, §3

[17] = tested on: Candida albicans TA; assay: Antibacterial test (MIC), Candida albicans TA; conditions: medium TSA
Excerpt: as §1, §2, §3

[18] = tested on: Streptococcus pyogenes E-14; assay: Antibacterial test (MIC), Streptococcus pyogenes E-14; conditions: medium B-TSA
Excerpt: as §1, §2, §3

[19] = tested on: Streptococcus pyogenes S-8; assay: Antibacterial test (MIC), Streptococcus pyogenes S-8; conditions: medium B-TSA
Excerpt: as §1, §2, §3

[20] = tested on: Streptococcus mitis America; assay: Antibacterial test (MIC), Streptococcus mitis America; conditions: medium B-TSA
Excerpt: as §1, §2, §3

[21] = tested on: Streptococcus faecium IFO 3128; assay: Antibacterial test (MIC), Streptococcus faecium IFO 3128; conditions: medium B-TSA
Excerpt: as §1, §2, §3

[22] = tested on: Streptococcus pneumoniae Type I; assay: Antibacterial test (MIC), Streptococcus pneumoniae Type I; conditions: medium B-TSA
Excerpt: as §1, §2, §3

[23] = tested on: Corynebacterium diphtheriae Toronto; assay: Antibacterial test (MIC), Corynebacterium diphtheriae Toronto; conditions: medium B-TSA
Excerpt: as §1, §2, §3

[24] = tested on: Bordetella bronchiseptica Sagami; assay: Antibacterial test (MIC), Bordetella bronchiseptica Sagami; conditions: medium B-TSA
Excerpt: as §1, §2, §3

CCN1CCN(C(=O)NC(C(=O)NC2CN(S(=O)(=O)[O-])C2=O)c2cccs2)C(=O)C1=O.[Na+] (racemic) [Compound E, Sodium 3-[DL-2-(4-ethyl-2,3-dioxo-1-piperazinocarboxamido)-2-thienylacetamido]-2-oxoazetidine-1-sulfonate]
Minimum inhibitory concentration (MIC) ([1]; medium B-TSA): 6.25 µg/mL | Minimum inhibitory concentration (MIC) ([1]; medium TSA): 6.25 µg/mL | Minimum inhibitory concentration (MIC) [2]: 6.25 µg/mL | Minimum inhibitory concentration (MIC) [3]: 25 µg/mL | Minimum inhibitory concentration (MIC) [4]: 1.56 µg/mL | Minimum inhibitory concentration (MIC) [5]: 0.2 µg/mL | Minimum inhibitory concentration (MIC) [6]: > 100 µg/mL | Minimum inhibitory concentration (MIC) [7]: 3.13 µg/mL | Minimum inhibitory concentration (MIC) [8]: 0.78 µg/mL | Minimum inhibitory concentration (MIC) [9]: 3.13 µg/mL | Minimum inhibitory concentration (MIC) [10]: 3.13 µg/mL | Minimum inhibitory concentration (MIC) [11]: < 0.1 µg/mL | Minimum inhibitory concentration (MIC) [12]: 0.78 µg/mL | Minimum inhibitory concentration (MIC) [13]: 12.5 µg/mL | Minimum inhibitory concentration (MIC) [14]: 3.13 µg/mL | Minimum inhibitory concentration (MIC) [15]: > 100 µg/mL | Minimum inhibitory concentration (MIC) [16]: 50 µg/mL | Minimum inhibitory concentration (MIC) [17]: > 100 µg/mL | Minimum inhibitory concentration (MIC) [18]: 1.56 µg/mL | Minimum inhibitory concentration (MIC) [19]: 3.13 µg/mL | Minimum inhibitory concentration (MIC) [20]: 25 µg/mL | Minimum inhibitory concentration (MIC) [21]: > 100 µg/mL | Minimum inhibitory concentration (MIC) [22]: 3.13 µg/mL | Minimum inhibitory concentration (MIC) [23]: 0.39 µg/mL | Minimum inhibitory concentration (MIC) [24]: > 100 µg/mL

CCCCCCCCN1CCN(C(=O)NC(C(=O)NC2CN(S(=O)(=O)[O-])C2=O)c2cccs2)C(=O)C1=O.[Na+] (stereo not shown) [Compound J, Sodium 3-[2-(4-n-octyl-2,3-dioxo-1-piperazinocarboxamido)-2-thienylacetamido]-2-oxoazetidine-1-sulfonate]
Minimum inhibitory concentration (MIC) ([1]; medium B-TSA): 3.13 µg/mL | Minimum inhibitory concentration (MIC) ([1]; medium TSA): 1.56 µg/mL | Minimum inhibitory concentration (MIC) [2]: 1.56 µg/mL | Minimum inhibitory concentration (MIC) [3]: 6.25 µg/mL | Minimum inhibitory concentration (MIC) [4]: 3.13 µg/mL | Minimum inhibitory concentration (MIC) [6]: > 100 µg/mL | Minimum inhibitory concentration (MIC) [7]: 3.13 µg/mL | Minimum inhibitory concentration (MIC) [8]: 1.56 µg/mL | Minimum inhibitory concentration (MIC) [9]: 6.25 µg/mL | Minimum inhibitory concentration (MIC) [10]: 1.56 µg/mL | Minimum inhibitory concentration (MIC) [11]: 1.56 µg/mL | Minimum inhibitory concentration (MIC) [12]: 3.13 µg/mL | Minimum inhibitory concentration (MIC) [13]: 1.56 µg/mL | Minimum inhibitory concentration (MIC) [14]: 6.25 µg/mL | Minimum inhibitory concentration (MIC) [15]: 25 µg/mL | Minimum inhibitory concentration (MIC) [16]: 6.25 µg/mL | Minimum inhibitory concentration (MIC) [17]: > 100 µg/mL | Minimum inhibitory concentration (MIC) [18]: 1.56 µg/mL | Minimum inhibitory concentration (MIC) [19]: 1.56 µg/mL | Minimum inhibitory concentration (MIC) [20]: 25 µg/mL | Minimum inhibitory concentration (MIC) [21]: > 100 µg/mL | Minimum inhibitory concentration (MIC) [22]: 1.56 µg/mL | Minimum inhibitory concentration (MIC) [23]: 0.78 µg/mL | Minimum inhibitory concentration (MIC) [24]: > 100 µg/mL
